Data from paper PMC10740425, “How Deep Learning in Antiviral Molecular Profiling Identified Anti-SARS-CoV-2 Inhibitors” (Biomedicines, 2023).

Columns and labels:
Calu-3 cells = settings: uninfected Calu-3 cells, concentrations up to 10 µM, normalized to DMSO
SARS-CoV-2 [1] = assay type: cell-based; settings: Calu-3 cells, treated 1 h post-infection, up to 10 µM, 72 h
SARS-CoV-2 [2] = settings: Calu-3 cells, 5 µM, pre-treated 2 h, MOI 0.1, 72 h
[3] = Mouse infection model, body weight changes; assay type: in vivo, BALB/C mice; settings: infected mice, 5 mg/kg intranasally, four-day observation

Compound | cellular toxicity (Calu-3 cells) | viral progeny / inhibitory effect (plaque assay, Western blotting) (SARS-CoV-2 [1]) | antiviral activity (intracellular virus, immunofluorescence staining) (SARS-CoV-2 [2]) | weight changes versus control group [3]
Cn1cnc([N+](=O)[O-])c1Sc1ncnc2nc[nH]c12 [azathioprine] | low cellular toxicity | significant reduction in viral progeny | antiviral activity comparable to established nucleoside analog inhibitors | no significant difference in weight changes
CC(C)C(=O)OC[C@H]1O[C@@H](n2ccc(NO)nc2=O)[C@H](O)[C@@H]1O [molnupiravir] | – | moderate inhibitory effects | – | –
O=P(O)(O)OC[C@H]1O[C@@H](n2cnc3c(S)ncnc32)[C@H](O)[C@@H]1O [thioinosinic acid] | – | notable antiviral efficacy | – | no significant difference in weight changes
